SMILES strings stand for the structures.

In this assay the target is ROCK2 (Homo sapiens (Human), UniProt O75116). Kind of assay: ROCK assay (Caliper LABCHIP peptide phosphorylation). Type of assay: biochemical. Conditions: 5 μM ATP, 1.5 μM peptide substrate. The protocol: The effectiveness of compounds of the present invention as ROCK inhibitors can be determined in a 30 μL assay containing 20 mM HEPES, pH 7.5, 20 mM MgCl2, 0.015% Brij-35, 4 mM DTT, 5 μM ATP and 1.5 μM peptide substrate (FITC-AHA-AKRRRLSSLRA-OH) (SEQ ID No. 1). Compounds were dissolved in DMSO so that the final concentration of DMSO was <2%, and the reaction was initiated with Rho kinase variants. After incubation, the reaction was terminated by the addition of EDTA and the phosphorylated and non-phosphorylated peptides separated using a LABCHIP® 3000 Reader (Caliper Life Sciences). […] Compounds were tested in dose-response format, and the inhibition of kinase activity was calculated at each concentration of compound. The inhibition data were fit using a curve-fitting program to determine the IC50; i.e., the concentration of compound required to inhibit 50% of kinase activity. Representative Examples were tested in the ROCK assay described above and found having ROCK inhibitory activity. A range of ROCK inhibitory activity (IC50 values) of ≤50 μM (50000 nM) was observed. Table A below lists the ROCK IC50 values measured for the following examples.
Sequence of ROCK2 (O75116 whole entry, species assumed): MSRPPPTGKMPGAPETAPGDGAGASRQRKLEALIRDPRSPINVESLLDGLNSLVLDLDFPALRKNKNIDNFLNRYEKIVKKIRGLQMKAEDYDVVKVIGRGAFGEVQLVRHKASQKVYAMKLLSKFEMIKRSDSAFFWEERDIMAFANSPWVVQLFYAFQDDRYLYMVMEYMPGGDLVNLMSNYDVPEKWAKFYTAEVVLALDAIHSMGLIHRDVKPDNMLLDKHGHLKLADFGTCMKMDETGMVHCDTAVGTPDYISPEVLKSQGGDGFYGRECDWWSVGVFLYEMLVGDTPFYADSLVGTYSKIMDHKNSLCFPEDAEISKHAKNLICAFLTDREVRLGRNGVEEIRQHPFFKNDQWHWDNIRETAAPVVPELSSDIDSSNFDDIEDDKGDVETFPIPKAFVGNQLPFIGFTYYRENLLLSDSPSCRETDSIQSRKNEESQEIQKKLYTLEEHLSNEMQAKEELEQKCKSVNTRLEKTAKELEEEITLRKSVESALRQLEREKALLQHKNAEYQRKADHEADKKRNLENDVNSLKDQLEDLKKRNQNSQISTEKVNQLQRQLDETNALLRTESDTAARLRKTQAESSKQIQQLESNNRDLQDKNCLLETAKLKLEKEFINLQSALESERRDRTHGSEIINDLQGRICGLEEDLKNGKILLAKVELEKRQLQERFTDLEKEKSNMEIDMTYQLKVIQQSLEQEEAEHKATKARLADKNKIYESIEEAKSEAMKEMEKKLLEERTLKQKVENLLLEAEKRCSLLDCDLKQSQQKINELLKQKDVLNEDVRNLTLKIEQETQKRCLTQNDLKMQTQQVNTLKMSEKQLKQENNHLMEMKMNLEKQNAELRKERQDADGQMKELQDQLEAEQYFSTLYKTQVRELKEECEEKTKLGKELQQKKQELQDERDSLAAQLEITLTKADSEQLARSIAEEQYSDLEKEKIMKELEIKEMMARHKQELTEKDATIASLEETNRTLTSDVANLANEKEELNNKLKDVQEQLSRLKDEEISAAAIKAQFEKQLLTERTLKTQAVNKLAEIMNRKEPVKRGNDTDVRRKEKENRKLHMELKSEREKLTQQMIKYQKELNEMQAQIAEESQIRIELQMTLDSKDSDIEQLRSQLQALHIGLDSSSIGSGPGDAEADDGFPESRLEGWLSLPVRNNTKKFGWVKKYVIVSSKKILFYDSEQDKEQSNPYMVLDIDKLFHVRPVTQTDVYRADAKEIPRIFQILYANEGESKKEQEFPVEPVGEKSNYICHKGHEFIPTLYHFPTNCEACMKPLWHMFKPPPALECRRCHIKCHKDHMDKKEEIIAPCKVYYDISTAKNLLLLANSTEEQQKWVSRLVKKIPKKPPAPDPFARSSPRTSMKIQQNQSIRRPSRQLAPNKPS
For `NC(=O)c1cccnc1OC1CC2(C1)CC(N1C(=O)CN(Cc3ccccc3)C1=O)C2` (stereo not shown) [Example 10, 2-{[6-(3-benzyl-2,5-dioxoimidazol-idin-1-yl)spiro-[3.3]heptan-2-yl]-oxy}pyridine-3-carboxamide], the IC50 was found to be 224 nM. This lies in the sub-micromolar range.
Regarding `NC(=O)c1cccnc1O[C@H]1C[C@]2(C1)C[C@H](N1C(=O)CN(CCc3ccccc3)C1=O)C2` (stereo partly shown) [Example 11], inhibition was half-maximal at 225 nM (IC50).
To `CC(C)CN1CC(=O)N([C@H]2C[C@@]3(C[C@H](Oc4ncccc4C(N)=O)C3)C2)C1=O` (stereo partly shown) [Example 13, 2-{[(αR)-6-[3-(2-methylpropyl)-2,5-dioxoimidazol-idin-1-yl]spiro-[3.3]heptan-2-yl]-oxy}pyridine-3-carboxamide] belongs 515 nM.
The result for `C#CCC1NC(=O)N([C@H]2C[C@@]3(C[C@H](Oc4ncccc4C(N)=O)C3)C2)C1=O` (stereo partly shown) [Example 14, 2-{[(αR)-6-[2,5-dioxo-4-(prop-2-yn-1-yl)imidazol-idin-1-yl]spiro-[3.3]heptan-2-yl]oxy}pyridine-3-carboxamide] reads 562 nM; that for `CC(C)(C)OC(=O)NCCCC1NC(=O)N([C@H]2C[C@@]3(C[C@H](Oc4ncccc4C(N)=O)C3)C2)C1=O` (stereo partly shown) [Example 15, tert-butyl N-(3-{2,5-dioxo-1-[(αR)-6-[(3-carbamoylpyridin-2-yl)oxy]spiro-[3.3]heptan-2-yl]imidazolidin-4-yl}propyl)-carbamate], 744 nM; that for `NC(=O)c1cccnc1O[C@H]1C[C@]2(C1)C[C@H](N1C(=O)NC3(CCC3)C1=O)C2` (stereo partly shown) [Example 16, 2-{[(αR)-6-{6,8-dioxo-5,7-diaza-spiro[3.4]octan-7-yl}spiro[3.3]-heptan-2-yl]oxy}-pyridine-3-carbox-amide], 902 nM.
The result for `NC(=O)c1cccnc1O[C@H]1C[C@]2(C1)C[C@H](N1C(=O)C3CCCCN3C1=O)C2` (stereo partly shown) [Example 17, 2-{[(αR)-6-{1,3-dioxo-hexahydro-1H-piperidino[1,2-c]imidazolidin-2-yl}spiro[3.3]heptan-2-yl]oxy}pyridine-3-carboxamide] reads 1340 nM; that for `NC(=O)c1cccnc1O[C@H]1C[C@]2(C1)C[C@H](N1C(=O)NC(CCO)C1=O)C2` (stereo partly shown) [Example 18, 2-{[(αR)-6-[2,5-dioxo-4-(2-hydroxyethyl)-imidazolidin-1-yl]spiro[3.3]-heptan-2-yl)oxy}-pyridine-3-carboxamide], 1500 nM.
Molecule `Cn1cnc(CC2NC(=O)N([C@H]3C[C@@]4(C[C@H](Oc5ncccc5C(N)=O)C4)C3)C2=O)c1` (stereo partly shown) [Example 19, 2-{[(αR)-6-[2,5-dioxo-4-(1-methyl-4-imidazylmethyl)-imidazolidin-1-yl]spiro[3.3]heptan-2-yl]oxy}pyridine-3-carboxamide] registered an IC50 of 1630 nM.
Take `NC(=O)c1cccnc1O[C@H]1C[C@]2(C1)C[C@H](N1C(=O)NC(Cc3c[nH]cn3)C1=O)C2` (stereo partly shown) [Example 22]: the IC50 stood at 2950 nM.
To `NC(=O)c1cccnc1O[C@H]1C[C@]2(C1)C[C@H](N1C(=O)C3CCCN3C1=O)C2` (stereo partly shown) [Example 23, 2-{[(αR)-6-{1,3-dioxo-hexahydro-1H-pyrrolo[1,2-c]imidazolidin-2-yl}spiro[3.3]-heptan-2-yl]oxy}-pyridine-3-carbox-amide] belongs 2020 nM.
The result for `[H][C@]1(Oc2ncccc2C(N)=O)C[C@]2(C[C@@H](N3C(=O)N[C@@H](Cc4ccccc4)C3=O)C2)C1` (stereo partly shown) [Example 24] reads 197 nM; that for `CC(C)(C)C[C@@H]1NC(=O)N([C@H]2C[C@@]3(C[C@H](Oc4ncccc4C(N)=O)C3)C2)C1=O` (stereo partly drawn) [Example 25, 2-{[(αR)-6-[(4S)-4-(2,2-dimethyl-propyl)-2,5-dioxo-imidazolidin-1-yl]-spiro[3.3]heptan-2-yl]oxy}pyridine-3-carboxamide], 10 nM; that for `NC(=O)c1cccnc1O[C@H]1C[C@]2(C1)C[C@H](N1C(=O)N[C@@H](CC3CC3)C1=O)C2` (stereo partly drawn) [Example 26, 2-{[(αR)-6-[(4S)-4-(cyclopropyl-methyl)-2,5-dioxo-imidazolidin-1-yl]-spiro[3.3]heptan-2-yl]oxy}pyridine-3-carboxamide], 38 nM.
`CC[C@H](C)[C@@H]1NC(=O)N([C@H]2C[C@@]3(C[C@H](Oc4ncccc4C(N)=O)C3)C2)C1=O` (stereo partly drawn) [Example 27, 2-{[(αR)-6-[(4S)-4-[(2S)-butan-2-yl]-2,5-dioxoimidazol-idin-1-yl]spiro-[3.3]heptan-2-yl]-oxy}pyridine-3-carboxamide] gave an IC50 of 45 nM.
`CCCC[C@@H]1NC(=O)N([C@H]2C[C@@]3(C[C@H](Oc4ncccc4C(N)=O)C3)C2)C1=O` (stereo partly drawn) [Example 28, 2-{[(αR)-6-[(4S)-4-butyl-2,5-dioxo-imidazolidin-1-yl]spiro[3.3]heptan-2-yl]oxy}pyridine-3-carboxamide]: the IC50 came to 57 nM.
On to `NC(=O)c1cccnc1O[C@H]1C[C@]2(C1)C[C@H](N1C(=O)NC(CCC(F)(F)F)C1=O)C2` (stereo partly shown) [Example 29, 2-{[(αR)-6-[2,5-dioxo-4-(3,3,3-trifluoropropyl)-imidazolidin-1-yl]spiro[3.3]-heptan-2-yl]oxy}-pyridine-3-carbox-amide], for which half-maximal inhibition (IC50) was put at 62 nM.
To `CSCC[C@@H]1NC(=O)N([C@H]2C[C@@]3(C[C@H](Oc4ncccc4C(N)=O)C3)C2)C1=O` (stereo partly drawn) [Example 30, 2-{[(αR)-6-[(4S)-4-[2-(methyl-sulfanyl)ethyl]-2,5-dioxoimidazol-idin-1-yl]spiro-[3.3]heptan-2-yl]-oxy}pyridine-3-carboxamide] belongs 89 nM.
To `CCC[C@@H]1NC(=O)N([C@H]2C[C@@]3(C[C@H](Oc4ncccc4C(N)=O)C3)C2)C1=O` (stereo partly drawn) [Example 31, 2-{[(αR)-6-[(4S)-2,5-dioxo-4-propyl-imidazolidin-1-yl]-spiro[3.3]heptan-2-yl]oxy}pyridine-3-carboxamide] belongs 123 nM.
The molecule `NC(=O)c1cccnc1O[C@H]1C[C@]2(C1)C[C@H](N1C(=O)N[C@@H](CC(F)(F)F)C1=O)C2` (stereo partly drawn) [Example 32, 2-{[(αR)-6-[(4S)-2,5-dioxo-4-(2,2,2-trifluoroethyl)-imidazolidin-1-yl]-spiro[3.3]heptan-2-yl]oxy}pyridine-3-carboxamide] registered an IC50 of 156 nM. The IC50 values of the last two molecules are within 1.5-fold of each other.
On to `NC(=O)c1cccnc1O[C@H]1C[C@]2(C1)C[C@H](N1C(=O)N[C@@H](CCOCc3ccccc3)C1=O)C2` (stereo partly drawn) [Example 33, 2-{[(αR)-6-[(4S)-4-[2-(benzyloxy)-ethyl]-2,5-dioxo-imidazolidin-1-yl]-spiro[3.3]heptan-2-yl]oxy}pyridine-3-carboxamide], for which the half-inhibitory concentration (IC50) came out at 426 nM.
The result for `NC(=O)c1cccnc1OC1CC2(C1)CC(N1C(=O)N[C@H](Cc3ccccc3)C1=O)C2` (stereo partly drawn) [Example 34, 2-({6-[(4R)-4-benzyl-2,5-dioxo-imidazolidin-1-yl]-spiro[3.3]heptan-2-yl}oxy)pyridine-3-carboxamide] reads 539 nM.
To `CC[C@@H]1NC(=O)N([C@H]2C[C@@]3(C[C@H](Oc4ncccc4C(N)=O)C3)C2)C1=O` (stereo partly drawn) [Example 35, 2-{[(αR)-6-((4S)-4-ethyl-2,5-dioxo-imidazolidin-1-yl]-spiro[3.3]heptan-2-yl]oxy}pyridine-3-carboxamide] belongs 1660 nM; to `COC[C@@H]1NC(=O)N([C@H]2C[C@@]3(C[C@H](Oc4ncccc4C(N)=O)C3)C2)C1=O` (stereo partly drawn) [Example 36, 2-{[(αR)-6-[(4S)-4-(methoxymethyl)-2,5-dioxoimidazol-idin-1-yl]spiro-[3.3]heptan-2-yl]-oxy}pyridine-3-carboxamide], 2390 nM; to `[H][C@]1(Oc2ncccc2C(N)=O)C[C@]2(C[C@@H](N3C(=O)NC(CCC4CC4)C3=O)C2)C1` (stereo partly shown) [Example 37], 44 nM.
To `CCCC(C)CC1NC(=O)N([C@H]2C[C@@]3(C[C@H](Oc4ncccc4C(N)=O)C3)C2)C1=O` (stereo partly shown) [Example 39, 2-{[(αR)-6-[4-(2-methylpentyl)-2,5-dioxoimidazolidin-1-yl]spiro[3.3]-heptan-2-yl]oxy}-pyridine-3-carbox-amide] belongs 14 nM.
`CCC(C)CC1NC(=O)N([C@H]2C[C@@]3(C[C@H](Oc4ncccc4C(N)=O)C3)C2)C1=O` (stereo partly shown) [Example 41, 2-{[(αR)-6-[4-(2-methylbutyl)-2,5-dioxoimidazolidin-1-yl]spiro[3.3]-heptan-2-yl]oxy}-pyridine-3-carbox-amide] had a half-inhibitory concentration (IC50) of 19 nM.
The molecule `CC(C)CC1NC(=O)N([C@H]2C[C@@]3(C[C@H](Oc4ncccc4C(N)=O)C3)C2)C1=O` (stereo partly shown) [Example 44, 2-{[(αR)-6-[4-(2-methylpropyl)-2,5-dioxoimidazolidin-1-yl]spiro[3.3]-heptan-2-yl]oxy}-pyridine-3-carbox-amide] came in with an IC50 of 29 nM.
The molecule `NC(=O)c1cccnc1O[C@H]1C[C@]2(C1)C[C@H](N1C(=O)NC(CC3CCCC3)C1=O)C2` (stereo partly shown) [Example 45, 2-{[(αR)-6-[4-(cyclopentyl-methyl)-2,5-dioxo-imidazolidin-1-yl]spiro[3.3]-heptan-2-yl]oxy}-pyridine-3-carbox-amide] had an IC50 of 30 nM.
`NC(=O)c1cccnc1O[C@H]1C[C@]2(C1)C[C@H](N1C(=O)NC(CC3CC(F)(F)C3)C1=O)C2` (stereo partly shown) [Example 46, 2-{[(αR)-6-{4-[(3,3-difluorocyclo-butyl)methyl]-2,5-dioxoimidazolidin-1-yl}spiro[3.3]-heptan-2-yl]oxy}-pyridine-3-carbox-amide] showed an IC50 of 48 nM.
For the molecule `NC(=O)c1cccnc1O[C@H]1C[C@]2(C1)C[C@H](N1C(=O)NC(CCC(F)(F)F)C1=O)C2` (stereo partly shown) [Example 49, 2-{[(αR)-6-[2,5-dioxo-4-(3,3,3-trifluoropropyl)-imidazolidin-1-yl]-spiro[3.3]heptan-2-yl]oxy}pyridine-3-carboxamide], it took 99 nM to reach half-maximal inhibition (IC50).

As usually defined, the IC50 is the concentration needed to halve the response being measured. Higher therefore signals weaker potency.
